Data on six compounds can be found in patent publication US12298319B2, “Method for measuring alpha value of muscarinic M1 receptor positive allosteric modulators” (Takeda Pharmaceutical Company Limited, priority 2017, dated 2025).

SMILES strings stand for the structures. Read-outs that look alike come from different tables or passages of the source.

Data set [1] deals with T1, M5R (Homo sapiens, UniProt P08912).
T1 sequence (P08912 1-532): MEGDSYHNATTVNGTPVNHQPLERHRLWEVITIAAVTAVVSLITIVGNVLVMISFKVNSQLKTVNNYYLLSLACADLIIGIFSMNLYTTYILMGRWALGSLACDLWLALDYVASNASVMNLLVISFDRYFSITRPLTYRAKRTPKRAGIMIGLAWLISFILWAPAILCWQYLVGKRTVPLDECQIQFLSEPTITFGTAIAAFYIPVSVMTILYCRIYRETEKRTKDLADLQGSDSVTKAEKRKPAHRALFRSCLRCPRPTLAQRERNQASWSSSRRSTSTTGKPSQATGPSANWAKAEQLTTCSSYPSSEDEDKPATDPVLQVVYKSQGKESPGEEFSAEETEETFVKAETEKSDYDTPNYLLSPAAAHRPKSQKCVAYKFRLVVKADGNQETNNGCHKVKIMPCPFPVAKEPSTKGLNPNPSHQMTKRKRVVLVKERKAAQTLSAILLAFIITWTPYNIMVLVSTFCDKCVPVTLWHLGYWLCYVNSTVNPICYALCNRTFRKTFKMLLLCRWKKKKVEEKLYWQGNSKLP
The data set is described as follows: Ca2+ flux PAM activity against other muscarinic receptor subtypes, M5R. The note with it: in the presence of EC20 ACh; read-out: PAM activity against other muscarinic receptor subtypes M5R pIP. Format: cell-based.

Data set [2] addresses M3R (Homo sapiens, UniProt P20309). Description: Ca2+ flux PAM activity against other muscarinic receptor subtypes, M3R. To be noted: in the presence of EC20 ACh; read-out: PAM activity against other muscarinic receptor subtypes M3R pIP. The format is cell-based. (Calcium assays in cells follow changes in intracellular calcium, usually with a dye or a luminescent sensor.)
The target of data set [3] is T2, human M1Rs (Homo sapiens, UniProt P11229).
T2 sequence (P11229 1-460): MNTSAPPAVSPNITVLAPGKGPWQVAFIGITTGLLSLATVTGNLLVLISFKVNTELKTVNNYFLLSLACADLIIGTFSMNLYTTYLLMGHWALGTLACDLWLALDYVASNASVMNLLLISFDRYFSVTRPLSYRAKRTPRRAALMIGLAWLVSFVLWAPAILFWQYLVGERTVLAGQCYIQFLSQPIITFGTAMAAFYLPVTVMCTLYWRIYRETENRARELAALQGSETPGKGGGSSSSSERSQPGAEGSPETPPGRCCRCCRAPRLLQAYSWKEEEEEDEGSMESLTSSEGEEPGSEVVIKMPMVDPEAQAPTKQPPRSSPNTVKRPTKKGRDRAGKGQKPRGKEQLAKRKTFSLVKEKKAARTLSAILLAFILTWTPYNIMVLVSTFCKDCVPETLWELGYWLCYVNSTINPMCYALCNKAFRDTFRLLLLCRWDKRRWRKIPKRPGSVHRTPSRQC
The data set is described as follows: Ca2+ flux assay in CHO-K1 cells stably expressing human M1R (FLIPR), agonist and PAM mode, operational model fit. To be noted: for log β Mean: allosteric effect of PAM on signaling efficacy of ACh; for log β Mean / Log TB Mean: operational model; for EC50: mean of three independent experiments; for Log TB Mean: intrinsic agonistic efficacy. The format is cell-based. How it is done:
Chinese hamster ovary (CHO-K1) cells stably expressing human M1Rs (hM1R-CHO) were plated in black-walled clear-bottomed 384-well plates (5,000 cells/well) and cultured overnight at 37° C. in the presence of 5% CO2 in Ham's F-12 medium supplemented with 10% FBS and 100 U/mL penicillin-streptomycin. The following day, the medium was removed and incubated with assay buffer (Hank's balanced salt solution with 20 mM HEPES, 0.1% fatty acid free BSA) containing 2.5 μg/mL Fluo-4 AM and 1.25 mM probenecid for 30 min at 37° C. in the presence of 5% CO2. After 30 min incubation at room temperature, cells were stimulated with compounds. In this experiment, ACh and each PAM were added to the cells simultaneously. Calcium flux was measured using a fluorescence imaging plate reader (FLIPR) tetra system (Molecular Devices, Sunnyvale, CA).
[formula] the pharmacological effect and Emax denotes the maximum possible effect; [A] and [B] are the concentrations of ACh and PAM, respectively; KA and KB denote the equilibrium dissociation constants of ACh and PAM, respectively; τA and τB represent the operational measures of ACh and PAM efficacy, respectively; a is the binding cooperativity between ACh and PAM (activity to enhance ACh affinity to M1R); β is the magnitude of the allosteric effect of PAM on the signaling efficacy of ACh; n denotes the slope factor. For the analysis of functional data, the equilibrium dissociation constant of each PAM and the cooperativity between ACh and each PAM were fixed to those determined from the binding experiments.
EC50, eliciting 50% of the maximal response of an endogenous ligand, ACh, reflects the agonistic activity for M1R under conditions without ACh. […] Results of the in vitro functional parameters for M1R represent the mean and S.E.M. of three independent experiments. N/A stands for “not available”. PAM means positive allosteric modulator (Table 1).

Data set [4] has as its target T3, M4R (Homo sapiens, UniProt P08173).
T3 sequence (P08173 1-479): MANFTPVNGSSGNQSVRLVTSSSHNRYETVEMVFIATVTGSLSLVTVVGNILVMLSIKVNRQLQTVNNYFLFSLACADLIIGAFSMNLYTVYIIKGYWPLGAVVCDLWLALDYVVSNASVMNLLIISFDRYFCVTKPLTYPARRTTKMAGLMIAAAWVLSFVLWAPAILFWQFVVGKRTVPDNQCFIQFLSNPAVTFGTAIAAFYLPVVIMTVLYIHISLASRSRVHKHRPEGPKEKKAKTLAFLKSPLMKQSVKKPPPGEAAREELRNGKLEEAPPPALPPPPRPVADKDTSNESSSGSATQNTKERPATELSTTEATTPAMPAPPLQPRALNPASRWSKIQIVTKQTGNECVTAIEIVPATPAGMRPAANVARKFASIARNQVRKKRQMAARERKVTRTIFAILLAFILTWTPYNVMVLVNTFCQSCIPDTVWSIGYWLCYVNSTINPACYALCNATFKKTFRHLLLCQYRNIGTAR
The data set is described as follows: Ca2+ flux PAM activity against other muscarinic receptor subtypes, M4R. The format is cell-based. The note with it: in the presence of EC20 ACh; read-out: PAM activity against other muscarinic receptor subtypes M4R pIP (converted).

In data set [5] the test system is mice. The data set is described as follows: Assessment of diarrhea in mice. Format: in vivo, mouse. The note with it: for diarrhea induction: mice. How it is done:
FIG. 1 depicts diarrhea induction by Compound C treatment in WT and M1R KO mice (hereinafter sometimes to be indicated as “MIKO mouse” in the present DESCRIPTION) (Example 11). […] The maximum score during the observation was adopted.
On the day of the experiment, mice were randomly divided into four groups (n=6-9). […] Each mouse was treated with either vehicle (10 or 20 mL/kg) or a single dose of each compound, including Compound A (3, 10 or 30 mg/kg p.o.), Compound B (10, 30, 100, 300 or 1,000 mg/kg p.o.) or Compound C (10 mg/kg p.o.). The animals were monitored, and scored the severity of diarrhea at 0.5, 1, 2, 4 and 6 h after administration. […] The highest score during the observation was adopted.

[6] abbreviates: inflection point in the presence of EC20 ACh, read-out: M1PAM activity pIP Mean (converted).
Where [7] appears, read: without ACh, read-out: M1 agonist activity pEC50 Mean (converted).

Sequence of M3R (P20309 whole entry): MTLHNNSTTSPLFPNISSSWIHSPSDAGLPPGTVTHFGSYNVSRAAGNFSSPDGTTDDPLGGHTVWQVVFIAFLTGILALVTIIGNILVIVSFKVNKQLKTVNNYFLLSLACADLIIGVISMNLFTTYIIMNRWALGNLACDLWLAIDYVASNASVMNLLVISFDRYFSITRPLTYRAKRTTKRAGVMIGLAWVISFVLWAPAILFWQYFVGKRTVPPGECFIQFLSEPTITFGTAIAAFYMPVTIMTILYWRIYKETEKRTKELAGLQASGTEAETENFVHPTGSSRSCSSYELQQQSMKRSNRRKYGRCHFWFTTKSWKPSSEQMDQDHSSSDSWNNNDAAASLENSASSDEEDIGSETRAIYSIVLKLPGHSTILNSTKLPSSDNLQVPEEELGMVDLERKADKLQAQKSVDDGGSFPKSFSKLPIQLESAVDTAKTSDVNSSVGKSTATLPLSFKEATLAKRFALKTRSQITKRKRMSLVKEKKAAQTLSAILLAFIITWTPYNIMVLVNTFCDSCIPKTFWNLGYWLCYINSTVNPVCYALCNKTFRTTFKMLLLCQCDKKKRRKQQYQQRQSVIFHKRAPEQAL

Regarding `Cn1cc(-c2ccc(CN3Cc4cccc(-c5ccn[nH]5)c4C3=O)cc2)cn1` [Compound G, 2-(4-(1-methyl-1H-pyrazol-4-yl)benzyl)-7-(1H-pyrazol-5-yl)isoindolin-1-one], the EC50 in data set [1] was over 10000 nM; in data set [2], over 10000 nM; in data set [3] (setting [6]), 275 nM; in data set [3] (setting [7]), over 10000 nM; in data set [4] it was over 10000 nM. For the same compound, in data set [3], the “log β Mean” value was found to be 0.85.

With `Cn1cc(-c2ccc(Cc3cc4c(=O)n([C@H]5CCCC[C@@H]5O)cnc4c4ccccc34)cn2)cn1` [Compound C, 3-((1S,2S)-2-hydroxycyclohexyl)-6-((6-(1-methyl-1H-pyrazol-4-yl)pyridin-3-yl)methyl)benzo[h]quinazoline-4(3H)-one, reference compound], the EC50 in data set [1] was over 10000 nM; in data set [2], over 10000 nM; in data set [3] (setting [6]), 2.09 nM; in data set [3] (setting [7]), 1.62 nM; in data set [4] it was over 10000 nM. In data set [5] (10 mg/kg p.o., M1R KO mice), the “diarrhea induction in M1R KO mice” value is recorded as “not in M1R KO mice”. Moreover, the “diarrhea induction in WT mice” value in data set [5] (10 mg/kg p.o., WT mice) is “induced diarrhea”. The “log β Mean” value in data set [3] is −0.39. Besides, in data set [3], the “Log TB Mean” value came to 1.49.

For the compound `Cn1cc(-c2ccc(CN3Cc4cccc(Oc5c(F)cccc5C#N)c4C3=O)cc2)cn1` [Compound B, 3-fluoro-2-((2-(4-(1-methyl-1H-pyrazol-4-yl)benzyl)-3-oxo-2,3-dihydro-1H-isoindol-4-yl)oxy)benzonitrile], the EC50 was over 10000 nM in data set [1]; over 10000 nM in data set [2]; 40.7 nM in data set [3] (setting [6]); 676 nM in data set [3] (setting [7]); over 10000 nM in data set [4]. The diarrhea induction entry in data set [5] (up to 1000 mg/kg p.o.) is “did not induce severe diarrhea”. Also, in data set [3], the “log β Mean” value stood at 0.58. In addition, the “Log TB Mean” value in data set [3] is recorded as −0.10.

Turning to `Cn1ccc(-c2ccc(CN3Cc4cccc(O[C@H]5CCCC[C@@H]5O)c4C3=O)cc2)n1` [Compound A, 7-(((1S,2S)-2-hydroxycyclohexyl)oxy)-2-(4-(1-methyl-1H-pyrazol-3-yl)benzyl)isoindolin-1-one], the EC50 is over 10000 nM in data set [1]; over 10000 nM in data set [2]; 10.2 nM in data set [3] (setting [6]); 72.4 nM in data set [3] (setting [7]); 1000 nM in data set [4]. In data set [5] (10 and 30 mg/kg p.o.), the diarrhea induction result is recorded as “caused severe diarrhea”. Moreover, the “log β Mean” value in data set [3] was 0.13. Moreover, the “Log TB Mean” value in data set [3] is recorded as 2.06.

On to `Cn1cc(-c2ccc(CN3Cc4cccc(OCCN5CCCCC5)c4C3=O)cc2)cn1` [Compound F, 2-(4-(1-methyl-1H-pyrazol-4-yl)benzyl)-7-(2-(piperidin-1-yl)ethoxy)isoindolin-1-one], for which the EC50 in data set [1] is over 10000 nM; in data set [2], over 10000 nM; in data set [3] (setting [6]) it was 79.4 nM; in data set [3] (setting [7]) it was 2090 nM; in data set [4], over 10000 nM. Also, the “log β Mean” value in data set [3] came out at 0.87. For the same compound, the “Log TB Mean” value in data set [3] worked out at 0.15.

With `O=c1c2cn(Cc3ccc(-n4cccn4)cc3)c3ccccc3c-2nn1-c1ccccc1F` [Compound E, 2-(2-fluorophenyl)-5-(4-(1H-pyrazol-1-yl)benzyl)-2,5-dihydro-3H-pyrazolo[4,3-c]quinolin-3-one, reference compound], the EC50 in data set [1] was over 10000 nM; in data set [2], over 10000 nM; in data set [3] (setting [6]), 8.51 nM; in data set [3] (setting [7]), 219 nM; in data set [4], over 10000 nM. Moreover, in data set [3], the “log β Mean” value was −0.23. Besides, the “Log TB Mean” value in data set [3] is given as 0.65.
